Patent publication US9938240B2, “Fluorinated derivatives of 3-hydroxypyridin-4-ones” (Apotex Technologies Inc., priority 2009, dated 2018)

Legend:
[1] = Distribution coefficient determination, D7.4 (1-octanol / K2HPO4 buffer); type: physicochemical; conditions: 1-octanol / K2HPO4 buffer 50 mM pH 7.4; for logD: read-out: Log D7.4
Description: K2HPO4 buffer (50 mM, pH=7.4) and 1-octanol were used as the aqueous phase and the organic phase, respectively. The K2HPO4 buffer and 1-octanol were mixed, and pre-saturated with each other before use.
In a typical experiment, an aqueous solution of Apo6995 (3-hydroxy-2-methyl-1-(2,2,2-trifluoroethyl)pyridin-4(1H)-one) was prepared by weighing out 3 mg of the compound into a 10-mL test-tube. It was then mixed with K2HPO4 buffer (2 mL) and sonicated for 30 minutes with frequent vortexing. The solution was then filtered through HPLC syringe filter (4 mm PVDF syringe filter 0.45 μM) to obtain the aqueous solution.
One mL of this aqueous solution was pipetted out into another 10-mL test-tube and mixed with 1 mL of 1-octanol. The mixture was then vortexed for 1 hour. The solution was centrifuged at 2000 rpm for 10 minutes. A small amount of the lower aqueous layer was carefully pipetted out and analyzed by HPLC to obtain the peak height (HF). The distribution coefficient, D7.4, was calculated using the following equation: D7.4=(HI−HF)/HF.

[2] = tested on: SH-SY5Y human neuroblastoma cells; conditions: for CC2 (cytotoxic concentration): H2O2-treated cells, viability below 80%; for CC1 (cytotoxic concentration): absence of H2O2, viability below 80%
Excerpt: Hydrogen peroxide (H2O2) is a major ROS (reactive oxidative species), which causes oxidative stress, and can induce apoptosis in many different cell types. One of the CNS drug design strategies is to use compounds with antioxidant properties as a possible treatment of both acute and chronic neurodegenerative diseases (Kang et al. Bioorganic & Medicinal Chemistry Letters, 2004, 14, 2261-2264). This involves testing the compounds of this invention for their protective effect against oxidative stress-induced cell death in SH-SY5Y human neuroblastoma cells. SH-SY5Y human neuroblastoma cells were cultured in DMEM (ATCC)/F12 (Cellgro) with 10% FBS. The cells were plated at 30,000 cells/cm^2 and grown for 1 day in the regular culture media prior to compound addition. Cells were routinely treated with the test compound, at a pre-determined range of concentrations, in the presence or absence of 50 μM hydrogen peroxide in a basal medium containing no FBS for 16-22 h. Cell viability was then measured using the routine MTT method (Mosmann, T., Rapid Colorimetric Assay for Cellular Growth and Survival: Application to Proliferation and Cytotoxicity Assays”. J. Immunol. Meth. 1983, 65, 55-63).
For data analysis, cell viability relative to control not treated with either H2O2 or the test compound, was plotted against the compound concentration. […] Cytotoxicity of the test compound was assessed in the absence of hydrogen peroxide.

[3] = Oral cassette dosing PK/BBB studies; type: in vivo, male Sprague-Dawley rats; conditions: oral cassette dosing, male Sprague-Dawley rats; for AUC brain* / AUC: AUC normalized to 1 mg/kg dose; for Kp / AUC: rat; for Kp: brain and plasma, read-out: AUC brain/AUC plasma; for AUC: plasma
Description: In-vivo pharmacokinetic (PK) and blood brain barrier (BBB) studies were conducted in male Sprague-Dawley rats using cassette dosing via oral administration. […] No. 15, pp. 652-658.

[4] = tested on: human neuroblastoma MC-65 cells; assay: cells; conditions: for EC100 / minimal effective concentration: Homo sapiens, MC65, 48 h; for EC100: read-out: EC100 (maximum effective concentration); for minimal effective concentration: read-out: TH (threshold protective concentration); for CC2 (cytotoxic concentration): MC-65, cultured without tetracycline; for CC2 (cytotoxic concentration) / CC1 (cytotoxic concentration): viability below 80%; for CC1 (cytotoxic concentration): MC-65, presence of TET
Description: In this assay, human neuroblastoma cells (MC-65 cells) are genetically engineered to conditionally express amyloid β peptide (Aβ). The Aβ production is suppressed by tetracycline (TET+) presence in culture medium, and its production is activated when TET is withdrawn (TET−). The activation of Aβ production results in cell death “MC-65 suicide”.
Protective effect of compounds against edogenously produced amyloid beta (Aβ) was assessed in human neuroblastoma MC-65 cells. MC-65 cells have been stably transformed to conditionally express high levels of a partial amyloid precursor (AP) fusion protein (Bryce Sopher et al., Brain Res Mol Brain Res. 1994, 207-17.). This protein is further proteolitically processed in the cells to form a set of AP-derived Aβ peptides. […] Activity of the promoter is tightly regulated by the presence of the antibiotic tetracycline (TET) in the culture medium. In the presence of TET (TET+), the promoter is in the basal state and no amyloid beta peptide is synthesized. In the absence of TET (TET−) the promoter is in induced state, resulting in the accumulation of Aβ peptides in the cells, degenerative changes in cell morphology and decreased survival.
Transfected human neuroblastoma cells (MC-65) were cultured in DMEM (ATCC) supplemented with non-essential amino acids and 10% FBS (VWR) in the presence of TET (1 μg/mL). For the experiment, the cells were plated at 35,000 cells/cm^2 and grown for 1 day in the regular culture media prior to compound addition. On the day of the assay, culture supernatant was removed from the wells and cells were thoroughly washed once with the compound incubation matrix containing no FBS and no TET. MC-65 cells were treated with a test compound at pre-determined range of concentrations in a basal medium containing no FBS and in the absence or presence of 1 μg/mL TET for approximately 48 h. Cell viability was then measured using the MTT method.
For data analysis, cell viabilities relative to the control not treated with a test compound and maintained in the presence of TET were plotted against the compound concentration. […] Cytotoxicity of the test compound was assessed in the cells maintained in the presence of TET.

SMILES | D7.4 [1] | logD [1] | CC2 (cytotoxic concentration) [2] [µM] | CC1 (cytotoxic concentration) [2] [µM] | AUC brain* [3] [ng·h/mL] | Kp [3] | AUC [3] [ng·h/mL] | EC100 [4] [µM] | minimal effective concentration [4] [µM] | CC2 (cytotoxic concentration) [4] [µM] | CC1 (cytotoxic concentration) [4] [µM] | Log D7.4 [1]
Cc1c(O)c(=O)ccn1CC(F)(F)F [Apo6995, 3-hydroxy-2-methyl-1-(2,2,2-trifluoroethyl)pyridin-4(1H)-one] | 2.51 | 0.4 | 320 | 320 | 300 | 1.2 | 260 | 20 | 0.1 | 80 | 80 | 
Cc1c(Cl)c(=O)c(O)c(CC(F)(F)F)n1C [Apo7040, 3-chloro-5-hydroxy-1,2-dimethyl-6-(2,2,2-trifluoroethyl)pyridin-4(1H)-one] | 8.76 | 0.94 | >640 | 160 |  |  |  | 40 | 1 | 80 | 40 | 
CN(C)C(c1c(O)c(=O)c(Cl)cn1C)C(F)(F)F (centres unmarked) [Apo7060, 5-chloro-2-[1-(dimethylamino)-2,2,2-trifluoroethyl]-3-hydroxy-1-methylpyridin-4(1H)-one] | 4.93 | 0.69 | >640 | 80 |  |  |  | 10 | 1 | 20 | 40 | 
Cc1cc(=O)c(O)c(CN(C)C)n1CC(F)(F)F [Apo7065, 2-[(dimethylamino)methyl]-3-hydroxy-6-methyl-1-(2,2,2-trifluoroethyl)pyridin-4(1H)-one] | 4.93 | 0.69 | >640 | 40 |  |  |  |  |  |  |  | 
Cn1cc(Cl)c(=O)c(O)c1CC(F)(F)F [Apo7066, 5-chloro-3-hydroxy-1-methyl-2-(2,2,2-trifluoroethyl)pyridin-4(1H)-one] | 4.69 | 0.67 | 160 | 160 |  |  |  | 10 | 0.1 | 80 | 80 | 
Cc1c(O)c(=O)ccn1CC(F)F [Apo7069, 1-(2,2-difluoroethyl)-3-hydroxy-2-methylpyridin-4(1H)-one] | 0.66 |  | >640 | 80 |  |  |  | 40 | 0.1 | 80 | 80 | −0.18
Cn1ccc(=O)c(O)c1CC(F)F [Apo7080, 2-(2,2-difluoroethyl)-3-hydroxy-1-methylpyridin-4(1H)-one] |  |  | >640 | 40 | 700 | 0.76 | 920 | 10 | 0.1 | 40 | 40 | 
Cc1cc(=O)c(O)c(CN(C)C)n1CC(F)F [Apo7083, 1-(2,2-difluoroethyl)-2-[(dimethylamino)methyl]-3-hydroxy-6-methylpyridin-4(1H)-one] | 1.70 | 0.23 |  |  |  |  |  | 10 | 0.1 | 40 | 40 | 
Cn1ccc(=O)c(O)c1C(C(F)F)N1CCCCC1 (centres unmarked) [Apo7319, 2-(2,2-difluoro-1-(piperidin-1-yl)ethyl)-3-hydroxy-1-methylpyridin-4(1H)-one] |  |  | 320 | 320 |  |  |  | 10 | 1 | 40 | 40 | 
Cc1cc(=O)c(O)c(C(N2CCOCC2)C(F)(F)F)n1C (centres unmarked) [Apo7333, 3-hydroxy-1,6-dimethyl-2-(2,2,2-trifluoro-1-morpholinoethyl)pyridin-4(1H)-one] |  |  | 320 | 320 |  |  |  | 10 | 1 | 40 | 20 | 
Cc1cc(=O)c(O)c(C(N2CCN(Cc3ccccc3)CC2)C(F)(F)F)n1C (centres unmarked) [Apo7334, 2-(1-(4-benzylpiperazin-1-yl)-2,2,2-trifluoroethyl)-3-hydroxy-1,6-dimethylpyridin-4(1H)-one] |  |  | 320 | 40 |  |  |  | 10 | 1 | 20 | 10 | 
Cc1cc(=O)c(O)c(C(N2CCN(c3ccccc3)CC2)C(F)(F)F)n1C (centres unmarked) [Apo7335, 3-hydroxy-1,6-dimethyl-2-(2,2,2-trifluoro-1-(4-phenylpiperazin-1-yl)ethyl)pyridin-4(1H)-one] |  |  | 80 | 80 |  |  |  | 10 | 1 | 20 | 20 | 
Cc1cc(=O)c(O)c(C(N2CCN(c3ccccn3)CC2)C(F)(F)F)n1C (centres unmarked) [Apo7336, 3-hydroxy-1,6-dimethyl-2-(2,2,2-trifluoro-1-(4-(pyridin-2-yl)piperazin-1-yl)ethyl)pyridin-4(1H)-one] |  |  | 80 | 80 |  |  |  | 10 | 1 | 20 | 10 | 
Cc1cc(=O)c(O)c(CN2CCOCC2)n1CC(F)(F)F [Apo7434, 3-hydroxy-6-methyl-2-(morpholinomethyl)-1-(2,2,2-trifluoroethyl)pyridin-4(1H)-one] |  |  | 320 | 320 |  |  |  | 20 | 1 | 40 | 40 | 
Oc1c(I)cc(Cl)c2cccnc12 [Clioquinol, reference compound] |  |  |  |  | 42 | 1.5 | 28 |  |  |  |  | 
